Measurements from US9890176B2, “Mannose derivatives for treating bacterial infections” (Vertex Pharmaceuticals Incorporated, priority 2013, dated 2018).

What follows are compounds tested on bacterial strain LF82 binding to the glycoprotein BSA-(Mannose)3 (assay: Bacterial Binding Assay (BBA)). Settings: read-out: Bacterial Binding Assay IC50.
Format: cell-based, Escherichia coli
Excerpt: The purpose of the Bacterial Binding Assay (BBA) is to determine the inhibition activity of selective FimH antagonists on the bacterial strain LF82 binding to the glycoprotein BSA-(Mannose)3.
Below is a list of the Materials used to run the BBA are described below. • 1. LB broth: Supplier: Gibco, #10855 • 2. D-PBS: Supplier: Wisent, #311-425-CL • 3. LB agar plates • 4. 96-well black plate (high binding): Supplier: Costar, #3925 • 5. TopSeal™-A adhesive sealing films; Supplier PerkinElmer, #6005185 • 6. Carbonate-bicarbonate buffer pH 9.6 tablets, Supplier: Medicago, #09-8922-24 • 7. Water, Supplier: Gibco, #15230-162 • 8. Bovine serum albumin (BSA): Supplier: Sigma, #A-7888 • 9. (Man)-3-BSA (α1-3, α1-6 Mannotriose-BSA, 1 mg), V-Labs, #NGP1336, lot#HGDX37-169-1 • 10. Tween 20: Supplier: Sigma, #P9416 • 11. Bright-Glo Luciferase Assay System: Supplier: Promega, #E2610 • 12. LF82/Luciferase strain: Invasive ability of an Escherichia coli strain isolated from the ileal mucosa of a patient with Crohn's disease. Boudeau J, Glasser A L, Masseret E, Joly B, Darfeuille-Michaud A, Infect Immun. 1999, 67(9), 4499-509
Solutions and buffers used to run the BBA are described below. • 1. 0.04M carbonate-bicarbonate buffer (coating buffer) • 2. […] 1 mg of (Man)-3-BSA in 25 mL of water. • 3. 4000 ng/mL BSA • 4. 40 ng/mL BSA • 5. 1 μg/mL BSA-(Man)3: 150 μL of 40 ng/mL BSA-(Man)3+5.85 mL of 40 ng/mL BSA • 6. 0.5 μg/mL BSA-(Man)3 in 0.02M carbonate-bicarbonate buffer. • 7. 20 ng/mL BSA in 0.02M carbonate-bicarbonate buffer • 8. Blocking buffer (2% BSA/DPBS): 1 g of BSA in 50 mL D-PBS • 9. 2× binding buffer (0.2% BSA/D-PBS): 5 mL of blocking buffer+45 mL D-PBS. • 10. Washing buffer (D-PBS/0.01% Tween 20): 10 μL of Tween 20 in 100 mL D-PBS. • 11. 1× Bright-Glo Luciferase substrate:Dilute 1:1 the Bright-Glo Luciferase Assay System with D-PBS The experimental protocol to run the BBA is described below.
Overnight culture of LF82/Luciferase strain: Into two Falcon 50 mL tubes, add 20 mL of LB+20 μL of 50 mg/mL Kanamycin and inoculate with a loop from glycerol stock of the LF82/Luciferase strain. Incubate overnight at 37° C. with no shaking.
Glycoprotein coating of 96-well plates: Add 100 μL/well of 0.5-2 μg/mL BSA-(Man)3. 20 μg/mL BSA is used as the control background. Seal plate using an adhesive sealing film and incubate overnight at room temperature. Wash the 96-well plate three times with 150 μL/well of D-PBS, add 170 μL/well of blocking solution and incubate 45 min (minimum) at room temperature.
Preparation of bacterial suspension: Mix the two cultures tubes (40 mL) and perform a 1:10 dilution in LB (900 μl LB+100 μl culture. Measure optical density (OD) of the bacterial cultures. OD1 ˜5×10^8 cells/mL. Centrifuge LF82 culture for 20 min at 3500 rpm at room temperature. Re-suspend bacterial pellet in D-PBS and centrifuge again for 20 min at 3500 rpm. Re-suspend bacterial pellet in D-PBS to obtain a bacterial concentration of 2×10^9 bacteria/mL. Dilute 1/10 in D-PBS to obtain a final bacterial concentration of 2×10^8 bacteria/mL (=107 bacteria/50 μL). Perform 1/10 serial dilutions in LB of each bacterial suspension, plate 10 μL of dilutions on LB agar plates (final dilutions of 10^−7) and incubate overnight at 37° C. and count CFUs to determine the actual bacteria density in the assay.
Bacterial binding assay: Add 147 μL 2× binding buffer to compound plate (containing 3 μL of compound). After blocking step is performed (at least 45 min), wash plates three times with 200 μL/well of D-PBS. With a 100 μL multichannel manual pipettor, add 50 μL/well of compound diluted in 2× binding buffer. With a 100 μL multichannel manual pipettor, add 50 μL/well of bacterial suspension. Agitate at slow speed for 1 min and incubate 40-75 min at room temperature. Wash 5 times with 150 μL/well of washing buffer and then once with D-PBS. Add 100 μL/well of 1× Bright-Glo Luciferase substrate. […]

SMILES | IC50 [nM]
Cc1cc(-c2cccc(C(=O)N[C@@H](CO)[C@@H](C)O)c2)ccc1O[C@H]1O[C@H](CO)[C@@H](O)[C@H](O)[C@]1(C)O [Compound 72] | 36 ± 9
CNC(=O)c1cc(F)cc(-c2ccc(O[C@H]3O[C@H](CO)[C@@H](O)[C@H](O)[C@]3(C)O)c(C)c2)c1 [Compound 73] | 16 ± 5
Cc1cc(-c2ccc(F)cc2)ccc1O[C@H]1O[C@H](CO)[C@@H](O)[C@H](O)[C@]1(C)O [Compound 74] | 180 ± 40
Cc1cc(-c2ccc(F)cc2F)ccc1O[C@H]1O[C@H](CO)[C@@H](O)[C@H](O)[C@]1(C)O [Compound 75] | 38 ± 18
Cc1cc(-c2cc(F)cc(F)c2)ccc1O[C@H]1O[C@H](CO)[C@@H](O)[C@H](O)[C@]1(C)O [Compound 76] | 24 ± 3
Cc1cc(-c2cc(Cl)ccc2F)ccc1O[C@H]1O[C@H](CO)[C@@H](O)[C@H](O)[C@]1(C)O [Compound 77] | 150
Cc1cc(-c2cc(F)cc(Cl)c2)ccc1O[C@H]1O[C@H](CO)[C@@H](O)[C@H](O)[C@]1(C)O [Compound 78] | 94 ± 6
COc1ccc(C#N)cc1-c1ccc(O[C@H]2O[C@H](CO)[C@@H](O)[C@H](O)[C@]2(C)O)c(C)c1 [Compound 79] | 20 ± 5
COc1cc(Cl)cc(-c2ccc(O[C@H]3O[C@H](CO)[C@@H](O)[C@H](O)[C@]3(C)O)c(C)c2)c1 [Compound 80] | 55 ± 15
COc1cc(Cl)ccc1-c1ccc(O[C@H]2O[C@H](CO)[C@@H](O)[C@H](O)[C@]2(C)O)c(C)c1 [Compound 81] | 185 ± 15
Cc1cc(-c2ccc(Cl)c(Cl)c2)ccc1O[C@H]1O[C@H](CO)[C@@H](O)[C@H](O)[C@]1(C)O [Compound 82] | 110 ± 31
Cc1cc(-c2cccc(C(=O)N(C)C)c2)ccc1O[C@H]1O[C@H](CO)[C@@H](O)[C@H](O)[C@]1(C)O [Compound 83] | 19 ± 6
Cc1cc(-c2cccc(S(N)(=O)=O)c2)ccc1O[C@H]1O[C@H](CO)[C@@H](O)[C@H](O)[C@]1(C)O [Compound 84] | 10 ± 2
Cc1cc(-c2ccc(F)c(C(=O)N3CCCC3)c2)ccc1O[C@H]1O[C@H](CO)[C@@H](O)[C@H](O)[C@]1(C)O [Compound 85] | 30 ± 8
Cc1cc(-c2cccc(S(=O)(=O)NC(C)(C)C)c2)ccc1O[C@H]1O[C@H](CO)[C@@H](O)[C@H](O)[C@]1(C)O [Compound 86] | 26 ± 8
Cc1cc(-c2ccc(O[C@H]3O[C@H](CO)[C@@H](O)[C@H](O)[C@]3(C)O)c(C)c2)ccc1F [Compound 87] | 87 ± 33
Cc1cc(-c2ccc(F)c(F)c2)ccc1O[C@H]1O[C@H](CO)[C@@H](O)[C@H](O)[C@]1(C)O [Compound 88] | 2950 ± 150
Cc1cc(-c2ccc3cc[nH]c3c2)ccc1O[C@H]1O[C@H](CO)[C@@H](O)[C@H](O)[C@]1(C)O [Compound 89] | 455 ± 95
COc1c(F)cccc1-c1ccc(O[C@H]2O[C@H](CO)[C@@H](O)[C@H](O)[C@]2(C)O)c(C)c1 [Compound 90] | 83 ± 3

SMILES | IC50 [nM]
COc1cc(F)ccc1-c1ccc(O[C@H]2O[C@H](CO)[C@@H](O)[C@H](O)[C@]2(C)O)c(C)c1 [Compound 91] | 92 ± 27
Cc1cc(-c2ccc(F)c(Cl)c2)ccc1O[C@H]1O[C@H](CO)[C@@H](O)[C@H](O)[C@]1(C)O [Compound 92] | 82 ± 15
Cc1cc(-c2cccc(Cl)c2F)ccc1O[C@H]1O[C@H](CO)[C@@H](O)[C@H](O)[C@]1(C)O [Compound 93] | 215 ± 5
COc1cc(OC)cc(-c2ccc(O[C@H]3O[C@H](CO)[C@@H](O)[C@H](O)[C@]3(C)O)c(C)c2)c1 [Compound 94] | 16 ± 6
COc1ccc(OC)c(-c2ccc(O[C@H]3O[C@H](CO)[C@@H](O)[C@H](O)[C@]3(C)O)c(C)c2)c1 [Compound 95] | 24 ± 12
COc1ccc(-c2ccc(O[C@H]3O[C@H](CO)[C@@H](O)[C@H](O)[C@]3(C)O)c(C)c2)cc1Cl [Compound 96] | 20 ± 9
COc1ccc(Cl)cc1-c1ccc(O[C@H]2O[C@H](CO)[C@@H](O)[C@H](O)[C@]2(C)O)c(C)c1 [Compound 97] | 110 ± 20
COc1c(F)cc(-c2ccc(O[C@H]3O[C@H](CO)[C@@H](O)[C@H](O)[C@]3(C)O)c(C)c2)cc1F [Compound 98] | 16 ± 7
COc1c(F)cc(F)cc1-c1ccc(O[C@H]2O[C@H](CO)[C@@H](O)[C@H](O)[C@]2(C)O)c(C)c1 [Compound 99] | 38 ± 8
COc1cc(Cl)c(Cl)cc1-c1ccc(O[C@H]2O[C@H](CO)[C@@H](O)[C@H](O)[C@]2(C)O)c(C)c1 [Compound 100] | 155 ± 25
Cc1cc(-c2cc(C#N)ccc2C)ccc1O[C@H]1O[C@H](CO)[C@@H](O)[C@H](O)[C@]1(C)O [Compound 101] | 1180 ± 215
Cc1cc(-c2ccc(F)c(C(=O)N3CCOCC3)c2)ccc1O[C@H]1O[C@H](CO)[C@@H](O)[C@H](O)[C@]1(C)O [Compound 102] | 24 ± 5
Cc1cc(-c2cc(F)cc(C(=O)N3CCOCC3)c2)ccc1O[C@H]1O[C@H](CO)[C@@H](O)[C@H](O)[C@]1(C)O [Compound 103] | 18 ± 8
Cc1cc(-c2ccc(O[C@H]3O[C@H](CO)[C@@H](O)[C@H](O)[C@]3(C)O)c(C)c2)ccc1O [Compound 104] | 69 ± 23
Cc1cc(-c2ccc(O[C@H]3O[C@H](CO)[C@@H](O)[C@H](O)[C@]3(C)O)c(C)c2)ccc1O[C@H]1O[C@H](CO)[C@@H](O)[C@H](O)[C@]1(C)O [Compound 105, (2R,3S,4S,5S,6R)-6-(hydroxymethyl)-3-methyl-2-[2-methyl-4-[3-methyl-4-[(2R,3S,4S,5S,6R)-3,4,5-trihydroxy-6-(hydroxymethyl)-3-methyl-tetrahydropyran-2-yl]oxy-phenyl]phenoxy]tetrahydropyran-3,4,5-triol] | 6 ± 2
CNC(=O)c1cccc(-c2ccc(O[C@H]3O[C@H](CO)[C@@H](O)[C@H](O)[C@]3(C)O)cc2)c1 [Example 14, N-methyl-3-[4-[(2R,3S,4S,5S,6R)-3,4,5-trihydroxy-6-(hydroxymethyl)-3-methyl-tetrahydropyran-2-yl]oxyphenyl]benzamide] | 132 ± 44
CNC(=O)c1cccc(-c2ccc(O[C@H]3O[C@H](CO)[C@@H](O)[C@H](O)[C@]3(C)O)c(Cl)c2)c1 [Example 15, 3-[3-chloro-4-[(2R,3S,4S,5S,6R)-3,4,5-trihydroxy-6-(hydroxymethyl)-3-methyl-tetrahydropyran-2-yl]oxy-phenyl]-N-methyl-benzamide] | 13 ± 2
CNC(=O)c1cccc(-c2ccc(O[C@H]3O[C@H](CO)[C@@H](O)[C@H](O)[C@]3(C)O)c(F)c2)c1 [Example 16, 3-[3-fluoro-4-[(2R,3S,4S,5S,6R)-3,4,5-trihydroxy-6-(hydroxymethyl)-3-methyl-tetrahydropyran-2-yl]oxy-phenyl]-N-methyl-benzamide] | 67 ± 18
CNC(=O)c1cccc(-c2ccc(O[C@H]3O[C@H](CO)[C@@H](O)[C@H](O)[C@]3(C)O)c(OC)c2)c1 [Example 17, 3-[3-methoxy-4-[(2R,3S,4S,5S,6R)-3,4,5-trihydroxy-6-(hydroxymethyl)-3-methyl-tetrahydropyran-2-yl]oxy-phenyl]-N-methyl-benzamide] | 27 ± 8
